Reference: US7880007B2, “Bicyclic substituted phenyl piperidine modulators of muscarinic receptors” (Vertex Pharmaceuticals Incorporated, priority 2004, dated 2011)

How the values were obtained:
Assay type in all cases: cell-based
M1 muscarinic receptor = target: T1, M1 muscarinic receptor (Homo sapiens, UniProt P11229); assay: Functional mobilization of intracellular calcium (FLIPR), M1-CHO cells; conditions: for M1 Activity: M1-CHO cells, calcium mobilization (FLIPR)
T1 construct: expressed in transfected cells; host or cells: CHO (M1-CHO)
T1 sequence (P11229 1-460): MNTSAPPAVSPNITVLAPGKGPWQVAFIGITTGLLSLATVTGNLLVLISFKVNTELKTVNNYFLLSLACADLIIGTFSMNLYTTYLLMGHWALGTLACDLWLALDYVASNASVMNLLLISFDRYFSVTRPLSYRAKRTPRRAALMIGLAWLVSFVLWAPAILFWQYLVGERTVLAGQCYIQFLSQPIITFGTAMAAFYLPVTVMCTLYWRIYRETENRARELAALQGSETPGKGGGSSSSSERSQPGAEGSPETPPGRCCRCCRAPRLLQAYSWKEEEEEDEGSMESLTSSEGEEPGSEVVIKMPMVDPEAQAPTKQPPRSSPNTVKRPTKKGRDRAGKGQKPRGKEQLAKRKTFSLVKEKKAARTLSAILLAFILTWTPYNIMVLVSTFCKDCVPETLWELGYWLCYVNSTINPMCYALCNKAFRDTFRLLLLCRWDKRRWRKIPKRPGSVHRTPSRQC
Outline: (§1)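 Calcium mobilisation read by FLIPR over 60 s (ex 488/em 540 nm) in recombinant muscarinic CHO lines loaded with calcium dye plus 1 mM probenecid. Compounds tested as agonists alone, or as inhibitors against EC80 carbachol after 15 min pre-incubation or co-addition; 0.5% DMSO; efficacy scaled to carbachol maximal response.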

M4 muscarinic receptor = target: T2, M4 muscarinic receptor (Homo sapiens, UniProt P08173); assay: Functional mobilization of intracellular calcium (FLIPR), M4-CHO cells; conditions: for M4 Activity: M4-CHO cells, calcium mobilization (FLIPR)
T2 construct: expressed in transfected cells; host or cells: CHO (M4-CHO)
T2 sequence (P08173 1-479): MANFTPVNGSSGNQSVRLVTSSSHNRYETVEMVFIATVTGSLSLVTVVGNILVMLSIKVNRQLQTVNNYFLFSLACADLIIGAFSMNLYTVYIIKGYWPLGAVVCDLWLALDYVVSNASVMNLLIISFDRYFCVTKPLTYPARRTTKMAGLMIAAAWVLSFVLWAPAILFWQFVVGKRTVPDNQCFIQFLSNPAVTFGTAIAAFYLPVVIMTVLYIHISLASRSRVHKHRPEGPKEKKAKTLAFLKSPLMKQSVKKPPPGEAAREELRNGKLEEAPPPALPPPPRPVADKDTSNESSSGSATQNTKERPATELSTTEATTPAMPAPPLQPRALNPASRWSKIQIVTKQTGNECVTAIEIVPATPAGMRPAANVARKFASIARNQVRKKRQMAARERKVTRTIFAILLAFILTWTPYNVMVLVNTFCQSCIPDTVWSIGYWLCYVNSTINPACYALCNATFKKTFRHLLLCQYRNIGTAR
Outline: as §1

M3 muscarinic receptor = target: T3, M3 muscarinic receptor (Homo sapiens, UniProt P20309); assay: Functional mobilization of intracellular calcium (FLIPR), M3-CHO cells; conditions: for M3 Activity: M3-CHO cells, calcium mobilization (FLIPR)
T3 construct: expressed in transfected cells; host or cells: CHO (M3-CHO)
T3 sequence (P20309 whole entry): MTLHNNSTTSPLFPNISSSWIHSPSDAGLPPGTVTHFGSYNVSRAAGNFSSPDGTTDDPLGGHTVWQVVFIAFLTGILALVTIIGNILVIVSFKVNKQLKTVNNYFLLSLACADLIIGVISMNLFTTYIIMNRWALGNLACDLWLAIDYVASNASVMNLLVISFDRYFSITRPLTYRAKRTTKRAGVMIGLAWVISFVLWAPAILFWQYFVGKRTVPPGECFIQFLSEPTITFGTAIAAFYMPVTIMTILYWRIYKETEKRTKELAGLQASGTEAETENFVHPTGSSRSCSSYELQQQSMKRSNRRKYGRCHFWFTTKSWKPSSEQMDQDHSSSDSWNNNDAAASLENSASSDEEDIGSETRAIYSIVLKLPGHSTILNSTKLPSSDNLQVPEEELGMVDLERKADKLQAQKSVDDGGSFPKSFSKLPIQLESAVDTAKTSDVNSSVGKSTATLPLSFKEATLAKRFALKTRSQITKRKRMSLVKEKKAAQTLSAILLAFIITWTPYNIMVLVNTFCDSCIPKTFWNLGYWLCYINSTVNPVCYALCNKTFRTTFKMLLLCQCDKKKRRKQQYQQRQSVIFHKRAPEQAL
Outline: as §1

M2 muscarinic receptor = target: T4, M2 muscarinic receptor (Homo sapiens, UniProt P08172); assay: Functional mobilization of intracellular calcium (FLIPR), M2-CHO cells; conditions: for M2 Activity: M2-CHO cells, calcium mobilization (FLIPR)
T4 construct: expressed in transfected cells; host or cells: CHO (M2-CHO)
T4 sequence (P08172 1-466): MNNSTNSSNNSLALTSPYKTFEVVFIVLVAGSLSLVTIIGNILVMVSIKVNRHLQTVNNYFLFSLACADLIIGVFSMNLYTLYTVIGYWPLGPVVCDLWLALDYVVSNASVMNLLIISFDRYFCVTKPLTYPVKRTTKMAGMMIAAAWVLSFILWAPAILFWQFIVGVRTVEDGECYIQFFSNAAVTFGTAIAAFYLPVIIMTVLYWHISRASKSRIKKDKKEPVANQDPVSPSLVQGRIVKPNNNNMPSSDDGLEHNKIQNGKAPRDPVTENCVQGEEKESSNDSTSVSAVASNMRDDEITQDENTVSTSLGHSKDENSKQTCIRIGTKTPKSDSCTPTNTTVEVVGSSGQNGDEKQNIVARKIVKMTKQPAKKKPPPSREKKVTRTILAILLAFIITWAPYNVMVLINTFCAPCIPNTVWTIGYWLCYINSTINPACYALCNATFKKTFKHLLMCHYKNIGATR
Outline: as §1

[1] = 100% efficacy = maximum response obtained with the Carbachol control

Row | SMILES | Emax (M1 muscarinic receptor; [1]) [%] | M1 Activity (M1 muscarinic receptor) | Emax (M4 muscarinic receptor; [1]) [%] | M4 Activity (M4 muscarinic receptor) | Emax (M3 muscarinic receptor; [1]) [%] | M3 Activity (M3 muscarinic receptor) | Emax (M2 muscarinic receptor; [1]) [%] | M2 Activity (M2 muscarinic receptor) | M1 Efficacy (M1 muscarinic receptor; [1]) | M4 Efficacy (M4 muscarinic receptor; [1]) | M3 Efficacy (M3 muscarinic receptor; [1]) | M2 Efficacy (M2 muscarinic receptor; [1])
1 | COc1ccc(-c2ccc(S(=O)(=O)N3CCCC3)cc2)cc1C1CCN(C2CC3CCC(C3)C2)CC1 (stereo not drawn) [Compound 129] | < 25 | + (activity was measured to be greater than 5.0 μM) | 25 to 100 | + (activity was measured to be greater than 5.0 μM) | < 25 | + (activity was measured to be greater than 5.0 μM) | < 25 | + (activity was measured to be greater than 5.0 μM) |  |  |  | 
2 | COc1ccc(Cl)cc1C1CCN(C2CCC(=NOC(C)(C)C)CC2)CC1 (stereo not drawn) [Compound 130] |  | ++ (activity was measured to be from 1.0 μM to 5.0 μM) |  | +++ (activity was measured to be less than 1.0 μM) |  | + (activity was measured to be greater than 5.0 μM) |  | + (activity was measured to be greater than 5.0 μM) | ++ (efficacy was calculated to be from 100% to 25%) | ++ (efficacy was calculated to be from 100% to 25%) | + (efficacy was calculated to be less than 25%) | + (efficacy was calculated to be less than 25%)
3 | COc1ccccc1C1CC2CCC(C1)N2C1CCCCC1 (stereo not drawn) [Compound 132] | < 25 | ++ (activity was measured to be from 1.0 μM to 5.0 μM) | < 25 | ++ (activity was measured to be from 1.0 μM to 5.0 μM) | < 25 | + (activity was measured to be greater than 5.0 μM) | < 25 | + (activity was measured to be greater than 5.0 μM) |  |  |  | 
4 | Clc1cccc(C2CCN(C3CC4CCC(C4)C3)CC2)c1 (stereo not drawn) [Compound 133] | 25 to 100 | + (activity was measured to be greater than 5.0 μM) | 25 to 100 | +++ (activity was measured to be less than 1.0 μM) | < 25 | + (activity was measured to be greater than 5.0 μM) | < 25 | + (activity was measured to be greater than 5.0 μM) |  |  |  | 
5 | COc1ccc(F)cc1C1(F)CCN(C[C@H]2C[C@H]3C=C[C@H]2C3)CC1 [Compound 134] | 25 to 100 | ++ (activity was measured to be from 1.0 μM to 5.0 μM) | 25 to 100 | +++ (activity was measured to be less than 1.0 μM) | < 25 | + (activity was measured to be greater than 5.0 μM) | 25 to 100 | ++ (activity was measured to be from 1.0 μM to 5.0 μM) |  |  |  | 
6 | Cc1ccc(C)c(C2(O)CCN(C3CC4CCC3C4)CC2)c1 (stereo not drawn) [Compound 135] | 25 to 100 | + (activity was measured to be greater than 5.0 μM) | < 25 | + (activity was measured to be greater than 5.0 μM) |  | + (activity was measured to be greater than 5.0 μM) | < 25 | + (activity was measured to be greater than 5.0 μM) |  |  |  | 
7 | COc1ccccc1C1CCN(C2CC(C)(C)CC(C)(C)C2)CC1 [Compound 138] | < 25 | + (activity was measured to be greater than 5.0 μM) | < 25 | + (activity was measured to be greater than 5.0 μM) | < 25 | + (activity was measured to be greater than 5.0 μM) | < 25 | + (activity was measured to be greater than 5.0 μM) |  |  |  | 
8 | COc1ccc(-c2ccccc2C2CCN([C@H]3C[C@H]4CC[C@H]3C4)CC2)c(OC)c1 [Compound 139] | 25 to 100 | + (activity was measured to be greater than 5.0 μM) | 25 to 100 | ++ (activity was measured to be from 1.0 μM to 5.0 μM) | < 25 | + (activity was measured to be greater than 5.0 μM) | < 25 | + (activity was measured to be greater than 5.0 μM) |  |  |  | 
9 | COc1ccc(Cl)cc1C1(OC)CCN(C[C@H]2C[C@H]3C=C[C@@H]2C3)CC1 [Compound 140, 1-(((1S,2S,4S)-bicyclo[2.2.1]hept-5-en-2-yl)methyl)-4-(5-chloro-2-methoxyphenyl)-4-methoxypiperidine] | 25 to 100 | ++ (activity was measured to be from 1.0 μM to 5.0 μM) | 25 to 100 | +++ (activity was measured to be less than 1.0 μM) | < 25 | + (activity was measured to be greater than 5.0 μM) | 25 to 100 | ++ (activity was measured to be from 1.0 μM to 5.0 μM) |  |  |  | 
10 | Clc1ccc(-c2ccccc2C2CCN([C@H]3C[C@H]4CC[C@H]3C4)CC2)cc1 [Compound 142] | 25 to 100 | + (activity was measured to be greater than 5.0 μM) | 25 to 100 | ++ (activity was measured to be from 1.0 μM to 5.0 μM) | < 25 | + (activity was measured to be greater than 5.0 μM) | 25 to 100 | + (activity was measured to be greater than 5.0 μM) |  |  |  | 
11 | COc1ccc(-c2cccc(Cl)c2)cc1C1CCN([C@@H]2C[C@H]3CC[C@H]2C3)CC1 [Compound 143] | < 25 | + (activity was measured to be greater than 5.0 μM) | 25 to 100 | + (activity was measured to be greater than 5.0 μM) | < 25 | + (activity was measured to be greater than 5.0 μM) | < 25 | + (activity was measured to be greater than 5.0 μM) |  |  |  | 
12 | COc1ccc(-c2cccc(C(N)=O)c2)cc1C1CCN([C@@H]2C[C@H]3CC[C@H]2C3)CC1 [Compound 144] | < 25 | + (activity was measured to be greater than 5.0 μM) | < 25 | + (activity was measured to be greater than 5.0 μM) | < 25 | + (activity was measured to be greater than 5.0 μM) | < 25 | + (activity was measured to be greater than 5.0 μM) |  |  |  | 
13 | CCOC(=O)N1CCC(CN2CCC(c3cc(-c4ccc(S(C)(=O)=O)cc4)ccc3OC)CC2)CC1 [Compound 146] | 25 to 100 | +++ (activity was measured to be less than 1.0 μM) | 25 to 100 | +++ (activity was measured to be less than 1.0 μM) | < 25 | + (activity was measured to be greater than 5.0 μM) | < 25 | + (activity was measured to be greater than 5.0 μM) |  |  |  | 
14 | c1ccc(C2CCN([C@H]3C[C@H]4CC[C@H]3C4)CC2)c(OCC2CCCCO2)c1 (stereo partly drawn) [Compound 147] | 25 to 100 | ++ (activity was measured to be from 1.0 μM to 5.0 μM) | 25 to 100 | +++ (activity was measured to be less than 1.0 μM) | < 25 | + (activity was measured to be greater than 5.0 μM) | 25 to 100 | ++ (activity was measured to be from 1.0 μM to 5.0 μM) |  |  |  | 
